Data on 8 molecules can be found in patent publication US6900315B2, “2-amino-9H-purin-9-yl compounds and methods for inhibiting/treating HIV infections and AIDS related symptoms” (Yale University, priority 2001, dated 2005).

The target in data set [1] is T1, wild type HIV-1 reverse transcriptase (Human immunodeficiency virus type 1 group M subtype B, UniProt P04585).
T1 construct: a mixture of 100 nM HIV-1 reverse transcriptase and 300 nM primer/template
Also noted: kpol/Kd: unit not given here. As to conditions: from Ray and Anderson or Furman et al., cited from earlier work.

The target of data set [2] is T1, wild type HIV-1 reverse transcriptase. Kind of data set: Kinetics of nucleotide incorporation by wild type HIV-1 reverse transcriptase. Format: biochemical. As to conditions: RT WT. The method, then:
Continued research on the guanosine prodrug approach for making D4G a viable anti-HIV agent has yielded a number of new findings. In the present example, enzyme kinetics for the incorporation of the active metabolites of guanosine prodrugs with wild type HIV-1 reverse transcriptase was determined. In this experiment, a mixture of 100 nM HIV-1 reverse transcriptase and 300 nM primer/template in which the correct base incorporation is a guanine nucleotide was rapidly mixed with nucleotide in the presence of 50 mM Tris, 50 mM NaCl and 10 mM MgCl2 for a set amount of time and then the reaction was stopped by the addition 300 mM of EDTA.

The next data set concerns HeLa. As to the kind of experiment: Toxicity, dye based cell growth assay, HeLa. As to conditions: read-out: IC50 (inhibited 50% of the cell growth), cervical cancer cell line, 5 days. The procedure:
(§1) To determine the toxicity of the compounds to various cell lines (Table 1, below), a similar dye based assay is performed in the absence of HIV. The toxicity of the compounds alone therefore was determined.

Data set [3] concerns mitochondrial DNA in CEM cells. As to the kind of experiment: Mitochondrial toxicity: ratio of mitochondrial DNA to Alu repeat in CEM cells. In kind it is cell-based. Conditions: human, 8 days. The text has this:
After 8 days of growth the cells were lysed and probed for the amount of mitochondrial DNA and normalized for differences in the amount of total DNA by probing for the Alu repeat. By comparing the amount of mitochondrial DNA to the amount of Alu repeat the % decrease in mitochondrial DNA in the presence of various concentrations of drug can be obtained. All experiments were done in triplicate. Techniques which are presented here have been previously described in Chen and Cheng, J. Biol. Chem., vol. 264, 11934-7 (1989).

The test system of another data set is CEM. As to the kind of experiment: Toxicity, dye based cell growth assay, CEM. As to conditions: read-out: IC50 (inhibited 50% of the cell growth), CEM, T cell line, 5 days. The procedure:
as §1

The test system of a further data set is KB. As to the kind of experiment: Toxicity, dye based cell growth assay, KB. Conditions: read-out: IC50 (inhibited 50% of the cell growth), oral carcinoma, 5 days. The method, then: as §1
Another data set relates to HEP-G2. As to the kind of experiment: Toxicity, dye based cell growth assay, HEP-G2. Conditions: read-out: IC50 (inhibited 50% of the cell growth), HEP-G2, hepatoma cell line, 5 days. The method, then:
as §1

The test system of another data set is HIV IIIB. Kind of data set: Anti-HIV activity in MT-2 cells infected with HIV IIIB, MTT dye cell viability. Format: cell-based. As to conditions: read-out: EC50 (concentration necessary to save 50% of the cells). The method, then: To assess the ability of the compounds according to the present invention to inhibit viral infection relative to other compounds experiments were performed in the MT-2 cell line, as previously described by Larder, et al., Antimicrobial Agents & Chemotherapy, vol. 34, 436 (1990). […] Cells were infected at an initial multiplicity of infection (MOI) of 0.1 and grown for 5 days. Cell viability was assessed by the use of dye metabolized by viable cells.
On the technique in general: Tetrazolium assays rely on reduction of a dye to a coloured formazan, in cell work by metabolically active cells.

A further data set has as its system MT-2. As to the kind of experiment: Toxicity, dye based cell growth assay in absence of HIV, MT-2. Conditions: read-out: IC50 (inhibited 50% of the cell growth), MT-2, HTLV infected T cell line, 5 days. The method, then:
as §1

Data set [4] deals with HIV. As to the kind of experiment: Anti-HIV drug combination (synergy, isobologram of FEC50) in cell culture. In kind it is cell-based. As to conditions: FIG. 3 and FIG. 4. The procedure:
Points on this line represent the compounds working independently.
In an attempt to understand how D4G prodrugs of the present invention would interact with other clinically approved compounds, experiments were performed with drug combinations. […] Points on the line represent two compounds working independently. […] See, Bridges, et al., Biochem. Pharmacol., 51, 731 (1996) and Dutschman, et al., Antimicro. Agents Chemother. 42, 1799 (1998).

Data set [5] has as its system HIV. Conditions: pairs: D4T and AZT, 3TC and ddC, FD4C and 3TC, abacavir and cyclo D4G; Bridges et al., Dutschman et al.; cited from earlier work.
Data set [6] concerns the target T2, mitochondrial polymerase gamma (Homo sapiens, UniProt P54098).
T2 sequence (P54098 1-1239): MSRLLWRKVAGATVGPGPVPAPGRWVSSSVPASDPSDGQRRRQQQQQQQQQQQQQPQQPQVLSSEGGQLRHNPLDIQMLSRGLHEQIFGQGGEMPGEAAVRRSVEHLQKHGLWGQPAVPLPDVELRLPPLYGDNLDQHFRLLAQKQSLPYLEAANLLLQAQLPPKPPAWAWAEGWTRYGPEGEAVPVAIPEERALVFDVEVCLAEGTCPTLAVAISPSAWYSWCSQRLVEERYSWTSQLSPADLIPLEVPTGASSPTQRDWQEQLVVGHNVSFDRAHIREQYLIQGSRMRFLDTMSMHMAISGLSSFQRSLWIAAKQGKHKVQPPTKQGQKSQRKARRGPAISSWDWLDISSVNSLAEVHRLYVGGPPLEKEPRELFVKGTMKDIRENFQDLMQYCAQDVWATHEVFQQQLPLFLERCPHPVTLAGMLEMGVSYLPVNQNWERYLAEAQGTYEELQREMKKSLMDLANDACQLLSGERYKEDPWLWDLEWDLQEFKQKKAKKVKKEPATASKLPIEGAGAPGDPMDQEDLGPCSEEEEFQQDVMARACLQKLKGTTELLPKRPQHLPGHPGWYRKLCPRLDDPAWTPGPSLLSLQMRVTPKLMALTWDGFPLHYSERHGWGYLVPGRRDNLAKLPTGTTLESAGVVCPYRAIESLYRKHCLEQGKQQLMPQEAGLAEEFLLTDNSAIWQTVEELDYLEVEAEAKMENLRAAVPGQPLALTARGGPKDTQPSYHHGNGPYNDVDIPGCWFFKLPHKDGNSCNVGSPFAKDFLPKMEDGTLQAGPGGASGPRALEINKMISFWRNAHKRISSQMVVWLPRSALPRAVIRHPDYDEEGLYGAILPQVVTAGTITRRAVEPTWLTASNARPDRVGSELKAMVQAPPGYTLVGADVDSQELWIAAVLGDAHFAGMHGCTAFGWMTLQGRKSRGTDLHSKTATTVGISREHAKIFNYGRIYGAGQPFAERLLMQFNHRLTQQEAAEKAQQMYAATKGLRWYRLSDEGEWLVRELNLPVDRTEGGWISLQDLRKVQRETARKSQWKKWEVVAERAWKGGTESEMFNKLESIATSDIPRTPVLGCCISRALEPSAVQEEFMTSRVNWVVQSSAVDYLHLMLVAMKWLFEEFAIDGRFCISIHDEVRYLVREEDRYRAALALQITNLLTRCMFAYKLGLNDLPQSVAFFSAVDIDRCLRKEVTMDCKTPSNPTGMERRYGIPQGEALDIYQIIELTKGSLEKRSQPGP
As to the kind of experiment: Nucleotide incorporation by mitochondrial polymerase gamma into an elongating DNA strand. Format: biochemical. Conditions: mitochondrial polymerase gamma, incorporation.

[7] abbreviates: Table 4, primer/template DNA/DNA.
Where [8] appears, read: Table 4, primer/template DNA/RNA.
Setting [9] is: Human immunodeficiency virus 1, MT2, 120 h, MT-2 cells, HIV IIIB, MOI 0.1, 5 days, MTT, NA = No Activity at concentrations up to 100 uM, EC50 not achievable due to toxicity.

Where two headings read alike, the source gives them in different places.

As usually defined, the Kd is a measure of binding affinity in units of concentration. Usually IC50 stands for the concentration that inhibits the measured activity by half.

For `Nc1nc2c(ncn2C2C=CC(COP(=O)(O)OP(=O)(O)OP(=O)(O)O)C2)c(=O)[nH]1` (single isomer, unassigned; (-)) [CBVTP, (−) carbovir-TP], in data set [1] (Table 3, substrate DNA/DNA), the “Selectivity = (kpol/Kd)dGTP/(kpol/Kd)analog” value was 30, the kpol is 1.0 ± 0.06 s⁻¹ and the kpol/Kd is listed as 0.05 ± 0.01. In data set [1] (Table 3, substrate DNA/RNA), the “Selectivity = (kpol/Kd)dGTP/(kpol/Kd)analog” value is 10, the kpol is 1.5 ± 0.05 s⁻¹ and the kpol/Kd is given as 0.42 ± 0.06. Besides, in data set [2] (setting [7]), the Efficiency came out at 0.05 ± 0.01 s^−1μM^−1, the Kd was 21 ± 3 µM, the “Selectivity = efficiency dGTP/efficiency analog” value is given as 30 and the kpol is 1.0 ± 0.06 s⁻¹. For the same molecule, in [2] (setting [8]), the Efficiency is on record as 0.42 ± 0.06 s^−1μM^−1, binding was characterised by a dissociation constant (Kd) of 3.7 ± 0.5 µM, the “Selectivity = efficiency dGTP/efficiency analog” value was found to be 10 and the kpol amounted to 1.5 ± 0.05 s⁻¹.
As to `Nc1nc(NC2CC2)c2ncn([C@H]3C=C[C@@H](CO)C3)c2n1` [Abacavir], the IC50 in the data set with HeLa (Homo sapiens, 120 h) was found to be 500 ± 33 µM; in the data set with CEM (Homo sapiens, CCRF-CEM, 120 h) it was 200 ± 50 µM; with KB (Homo sapiens, 120 h), 200 ± 21 µM; with HEP-G2 (Homo sapiens, HepG2, 120 h), 180 ± 12 µM; in the data set on MT-2 (Homo sapiens, MT2, 120 h), 60 ± 13 µM. Besides, the “% Control (mtDNA/Alu)” value is listed as 110% in [3] (1 μM), 119% in data set [3] (10 μM) and 127% in data set [3] (200 μM). For the same molecule, the “Ration of mtDNA/Alu” value in data set [3] (1 μM) is reported as 1.18 ± 0.03; in data set [3] (10 μM), 1.27 ± 0.06; in data set [3] (200 μM) it was 1.36 ± 0.06. The EC50 in the data set with HIV IIIB (Human immunodeficiency virus 1, IIIB, MT2, 120 h) stood at 2 ± 0.4 µM. Further, in the data set on HIV [4], the “anti-HIV interaction in combination with 3TC” value is “merely additive”. In addition, the “anti-HIV interaction of two analogs of the same base” value in the data set with HIV [5] was “not synergistic”.
Take `Nc1nc(N)c2ncn([C@H]3CO[C@@H](CO)O3)c2n1` [DAPD]: the half-maximal inhibitory concentration (IC50) was 500 ± 33 µM in the data set on HeLa; more than 500 µM in the data set on CEM; more than 500 µM in the data set on KB; 500 ± 33 µM in the data set with HEP-G2; more than 100 µM in the data set with MT-2. Moreover, in the data set with HIV IIIB (MT-2 cells, HIV IIIB, MOI 0.1, 5 days, MTT, NA = No Activity at concentrations up to 100 uM, EC50 not achievable due to toxicity), the EC50 is 15 ± 4 µM.
As to `Nc1nc2c(ncn2[C@H]2CO[C@@H](COP(=O)(O)OP(=O)(O)OP(=O)(O)O)O2)c(=O)[nH]1` [DXGTP], in data set [1] (Table 3, substrate DNA/DNA), the dissociation constant (Kd) was 2.5 ± 0.2 µM, the “Selectivity = (kpol/Kd)dGTP/(kpol/Kd)analog” value is reported as 3, the kpol was 1.46 ± 0.03 s⁻¹ and the kpol/Kd is recorded as 0.58 ± 0.05. For the same molecule, in [1] (Table 3, substrate DNA/RNA), the Kd was 8.8 ± 1.1 µM, the “Selectivity = (kpol/Kd)dGTP/(kpol/Kd)analog” value is recorded as 20, the kpol was 1.5 ± 0.1 s⁻¹ and the kpol/Kd is listed as 0.17 ± 0.02.
In the case of `Nc1ccn([C@H]2CC[C@@H](CO)O2)c(=O)n1` [DdC, 2′,3′ dideoxycytodine], the IC50 is more than 100 µM in the data set with HeLa (Homo sapiens, 120 h); 3 ± 1 µM with CEM (Homo sapiens, CCRF-CEM, 120 h); 100 ± 11 µM in the data set with KB (Homo sapiens, 120 h); 25 ± 2 µM in the data set with HEP-G2 (Homo sapiens, HepG2, 120 h); 2 ± 0.3 µM with MT-2 (Homo sapiens, MT2, 120 h). Further, the “% Control (mtDNA/Alu)” value in [3] (0.01 μM) turned out to be 87%; in data set [3] (0.1 μM) it was 65%; in [3] (1 μM) it was 3%. Further, the “Ration of mtDNA/Alu” value is 0.93 ± 0.06 in data set [3] (0.01 μM), 0.70 ± 0.04 in data set [3] (0.1 μM) and 0.03 ± 0.01 in data set [3] (1 μM). In addition, the EC50 in the data set with HIV IIIB (setting [9]) was 0.3 ± 0.05 µM.
In the case of `OC[C@@H]1CC[C@H](n2cnc3c(O)ncnc32)O1` [DdI, 2′,3′ dideoxyinosine], the half-maximal inhibitory concentration (IC50) was 500 ± 33 µM in the data set on HeLa (Homo sapiens, 120 h); more than 500 µM in the data set on CEM (Homo sapiens, CCRF-CEM, 120 h); more than 500 µM with KB (Homo sapiens, 120 h); more than 500 µM in the data set on HEP-G2 (Homo sapiens, HepG2, 120 h); more than 100 µM in the data set with MT-2 (Homo sapiens, MT2, 120 h). The EC50 in the data set on HIV IIIB (setting [9]) was 20 ± 6 µM.
For the molecule `Nc1nc(=O)n([C@@H]2C=C[C@H](CO)O2)cc1F` [FD4C], in the data set on HIV [5], the “anti-HIV interaction of two analogs of the same base” value is reported as “not synergistic”.
With `Cc1cn([C@H]2C[C@H](O)[C@@H](COP(=O)(O)OP(=O)(O)OP(=O)(O)O)O2)c(=O)[nH]c1=O` [dTTP], in data set [6], binding was characterised by a dissociation constant (Kd) of 0.6 ± 0.16 µM, the kpol was determined as 25 ± 2 s⁻¹ and the “kpol/Kd” value is 3.9e+07 ± 1.3e+07 M⁻¹ s⁻¹.
